Test results as given in the NIST ThermoML archive (doi:10.1016/j.tca.2012.07.014).
± gives the expanded uncertainty stated by the source.

Conditions: Crystal; visual observation

Normal melting temperature: 360.00 ± 1 °C
SMILES: CO[C@@]12[C@H](COC(N)=O)C3=C(C(=O)C(C)=C(N)C3=O)N1C[C@@H]1N[C@@H]12 [ametycine]
